Laboratory results as given in PubChem BioAssay AID493086 (The Scripps Research Institute Molecular Screening Center, 2011).
Activity calls are given as the source filed them.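 How the source made its calls: active means IC50 at or below 10 µM; inactive means IC50 above 10 µM.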

biological target: Induced myeloid leukemia cell differentiation protein Mcl-1 (Homo sapiens) (UniProt Q07820); experiment: MCL1 binding to BIM-BH3 peptide, inhibitors, late-stage follow-up, biochemical, fluorescence polarization, assay provider data, powder samples (AID 493086); details: GST-MCL1 / FITC-BIM-BH3 fluorescence polarization
Sequence (Q07820 whole entry, looked up): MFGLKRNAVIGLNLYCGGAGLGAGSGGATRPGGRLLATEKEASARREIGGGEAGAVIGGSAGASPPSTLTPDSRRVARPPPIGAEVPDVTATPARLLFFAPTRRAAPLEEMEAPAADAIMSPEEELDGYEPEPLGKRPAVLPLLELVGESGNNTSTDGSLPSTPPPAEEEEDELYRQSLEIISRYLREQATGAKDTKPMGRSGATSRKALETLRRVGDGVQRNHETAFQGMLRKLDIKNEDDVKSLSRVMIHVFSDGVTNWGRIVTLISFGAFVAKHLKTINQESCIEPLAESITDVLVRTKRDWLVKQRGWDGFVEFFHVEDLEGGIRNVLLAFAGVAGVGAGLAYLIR

Row | Structure (SMILES) | IC50
1 | COc1ccc(NC(=O)CN(C)C(=O)c2cc(-c3ccc(C)o3)nc3ccccc23)cc1 | > 20 µM (inactive)
2 | Cc1ccc(-c2cc(C(=O)Nc3nccs3)c3ccccc3n2)o1 | > 20 µM (inactive)
3 | Cc1ccc(-c2cc(C(=O)N3CC(C)CC(C)C3)c3ccccc3n2)o1 (stereo not given) | > 20 µM (inactive)
4 | COc1ccc(NC(=O)c2cc(-c3ccc(C)o3)nc3ccccc23)cc1OC | > 20 µM (inactive)
5 | COc1ccc(Cc2nnc(NC(=O)Cc3ccc4c(c3)OCO4)s2)cc1OC | > 20 µM (inactive)
6 | CCc1nnc(NC(=O)c2cc(-c3ccco3)nc3ccccc23)s1 | inactive
7 | CN(CCOc1ccccc1)C(=O)c1cc(-c2ccco2)nc2ccccc12 | > 20 µM (inactive)
8 | CC(=O)c1cccc(NC(=O)c2cc(-c3ccco3)nc3ccccc23)c1 | > 20 µM (inactive)
9 | O=C(NCC1CCCO1)c1cc(-c2ccco2)nc2ccccc12 (stereo not given) | inactive
10 | COc1ccc(Cc2nnc(NC(=O)Cc3ccncc3)s2)cc1OC | > 20 µM (inactive)
11 | CCCn1c(N)c(N(CCOC)C(=O)c2cc(-c3ccco3)nc3ccccc23)c(=O)[nH]c1=O | > 20 µM (inactive)
12 | COc1cccc(NC(=O)c2cc(-c3ccc(C)o3)nc3ccccc23)c1 | > 20 µM (inactive)
13 | COc1ccc(Cc2nnc(NC(=O)CCc3cccs3)s2)cc1OC | > 20 µM (inactive)
14 | Cc1ccc(NC(=O)c2cc(-c3ccco3)nc3ccccc23)cc1S(=O)(=O)N1CCOCC1 | inactive
15 | COc1cccc(CC(=O)Nc2nnc(Cc3ccc(OC)c(OC)c3)s2)c1 | > 20 µM (inactive)
16 | COc1ccc(Cc2nnc(NC(=O)Cc3cccs3)s2)cc1 | > 20 µM (inactive)
17 | Cc1ccc(-c2cc(C(=O)N3CCCC(C(F)(F)F)C3)c3ccccc3n2)o1 (stereo not given) | > 20 µM (inactive)
18 | CCCCN(C(=O)c1cc(-c2ccco2)nc2ccccc12)c1c(N)n(CCCC)c(=O)[nH]c1=O | > 20 µM (inactive)
19 | COc1ccc(Cc2nnc(NC(=O)Cc3ccccn3)s2)cc1OC | > 20 µM (inactive)
20 | COc1ccccc1NC(=O)c1cc(-c2ccc(C)o2)nc2ccccc12 | > 20 µM (inactive)
21 | Cc1ccc(-c2cc(C(=O)Nc3ccccc3C(N)=O)c3ccccc3n2)o1 | > 20 µM (inactive)
22 | O=C(NC1CC1)c1cc(-c2ccco2)nc2ccccc12 | 4.4 µM
23 | O=C(Nc1ccccc1N1CCOCC1)c1cc(-c2ccco2)nc2ccccc12 | inactive
24 | Cc1ccc(-c2cc(C(=O)N3CCN(c4ccccc4O)CC3)c3ccccc3n2)o1 | > 20 µM (inactive)

Row | Structure (SMILES) | IC50
25 | Cc1ccc(-c2cc(C(=O)N3CCN(c4ccc(F)cc4)CC3)c3ccccc3n2)o1 | > 20 µM (inactive)
26 | O=C(c1cc(-c2ccco2)nc2ccccc12)N1CCN(c2ccc(F)cc2)CC1 | > 20 µM (inactive)
27 | COc1ccc(Cc2nnc(NC(=O)Cc3ccc(Oc4ccccc4)cc3)s2)cc1OC | > 20 µM (inactive)
28 | CCN1CCN(C(=O)c2cc(-c3ccco3)nc3ccccc23)CC1 | 6.7 µM
29 | O=C(Nc1nccs1)c1cc(-c2ccco2)nc2ccccc12 | inactive
30 | COc1ccc(Cc2nnc(NC(=O)Cc3cccnc3)s2)cc1OC | > 20 µM (inactive)
31 | COc1ccc(Cc2nnc(NC(=O)Cc3c[nH]c4ccccc34)s2)cc1OC | > 20 µM (inactive)
32 | COc1ccc(Cc2nnc(NC(=O)Cc3ccc(-c4ccccc4)cc3)s2)cc1OC | > 20 µM (inactive)
33 | CCCCn1c(N)c(N(CCC(C)C)C(=O)c2cc(-c3ccco3)nc3ccccc23)c(=O)[nH]c1=O | > 20 µM (inactive)
34 | COc1cccc(NC(=O)c2cc(-c3ccco3)nc3ccccc23)c1 | > 20 µM (inactive)
35 | Cc1ccc(-c2cc(C(=O)N3CCOCC3)c3ccccc3n2)o1 | > 20 µM (inactive)
36 | O=C(c1cc(-c2ccco2)nc2ccccc12)N1CCN(Cc2ccccc2)CC1 | > 20 µM (inactive)
37 | CCC(=O)Nc1nnc(Cc2ccccc2)s1 | > 20 µM (inactive)
38 | COc1ccc(Cc2nnc(NC(=O)Cc3ccc4ccccc4c3)s2)cc1OC | > 20 µM (inactive)
39 | COc1ccc(Cc2nnc(NC(=O)Cc3ccccc3C)s2)cc1OC | > 20 µM (inactive)
40 | COc1ccc(NC(=O)c2cc(-c3ccco3)nc3ccccc23)cc1S(=O)(=O)N1CCOCC1 | inactive
41 | CCN(CC)CCNC(=O)c1cc(-c2ccco2)nc2ccccc12 | > 20 µM (inactive)
42 | O=C(Nc1nncs1)c1cc(-c2ccco2)nc2ccccc12 | inactive
43 | CCCCn1c(N)c(N(CCOC)C(=O)c2cc(-c3ccco3)nc3ccccc23)c(=O)[nH]c1=O | > 20 µM (inactive)
44 | CCCC(=O)Nc1nnc(Cc2ccccc2)s1 | > 20 µM (inactive)
45 | COc1ccc(NC(=O)c2cc(-c3ccc(C)o3)nc3ccccc23)cc1 | > 20 µM (inactive)
46 | O=C(Nc1ccccc1F)c1cc(-c2ccco2)nc2ccccc12 | inactive
47 | O=C(NCCCN1CCOCC1)c1cc(-c2ccco2)nc2ccccc12 | > 20 µM (inactive)
48 | Cc1ccc(-c2cc(C(=O)Nc3cccnc3)c3ccccc3n2)o1 | inactive

Row | Structure (SMILES) | IC50
49 | NS(=O)(=O)c1ccc(CCNC(=O)c2cc(-c3ccco3)nc3ccccc23)cc1 | > 20 µM (inactive)
50 | O=C(CCn1nnc2ccccc21)Nc1nnc(Cc2ccc(F)cc2)s1 | > 20 µM (inactive)
51 | CN(CCOc1ccc(Cl)cc1)C(=O)c1cc(-c2ccco2)nc2ccccc12 | > 20 µM (inactive)
52 | Cc1cccc(NC(=O)c2cc(-c3ccco3)nc3ccccc23)n1 | inactive
53 | COc1ccc(Cc2nnc(NC(=O)Cc3cccs3)s2)cc1OC | > 20 µM (inactive)
54 | Cc1ccc(NC(=O)c2cc(-c3ccc(C)o3)nc3ccccc23)cc1 | > 20 µM (inactive)
55 | CC(=O)N1CCN(C(=O)c2cc(-c3ccc(C)o3)nc3ccccc23)CC1 | > 20 µM (inactive)
56 | CN(C)C(CNC(=O)c1cc(-c2ccco2)nc2ccccc12)c1ccccc1 (stereo not given) | > 20 µM (inactive)
57 | COc1ccc(Cc2nnc(NC(=O)Cc3ccsc3)s2)cc1OC | > 20 µM (inactive)
58 | COc1ccc(Cc2nnc(NC(=O)Cc3csc4ccccc34)s2)cc1OC | > 20 µM (inactive)
59 | Cc1ccc(NC(=O)c2cc(-c3ccc(C)o3)nc3ccccc23)nc1 | inactive
60 | Cc1csc(NC(=O)c2cc(-c3ccco3)nc3ccccc23)n1 | inactive
61 | COc1ccccc1CC(=O)Nc1nnc(Cc2ccc(OC)c(OC)c2)s1 | > 20 µM (inactive)
62 | COc1ccc(Cc2nnc(NC(=O)Cc3ccc(C)cc3)s2)cc1OC | > 20 µM (inactive)
63 | COCCN(C(=O)c1cc(-c2ccco2)nc2ccccc12)c1c(N)n(Cc2ccccc2)c(=O)[nH]c1=O | 3.4 µM
64 | O=C(CCn1nnc2ccccc21)Nc1nnc(Cc2ccccc2)s1 | > 20 µM (inactive)
65 | CCCCCCNC(=O)c1cc(-c2ccco2)nc2ccccc12 | > 20 µM (inactive)
66 | Cc1ccc(-c2cc(C(=O)NCCCn3ccnc3)c3cc(Br)ccc3n2)o1 | inactive
67 | CCOC(=O)c1cc(-c2ccco2)nc2c1c(C)nn2-c1cccc(Cl)c1 | > 20 µM (inactive)
68 | O=C(Nc1cccc(S(=O)(=O)NC2=NCCC2)c1)c1cc(-c2ccco2)nc2ccccc12 | inactive
69 | Cc1ccc(-c2cc(C(=O)N3CCN(c4ncccn4)CC3)c3cc(Br)ccc3n2)o1 | inactive
70 | CCOC(=O)C1CCCN(C(=O)c2cc(-c3ccco3)nc3ccccc23)C1 (stereo not given) | 5.5 µM
71 | COc1cccc(NC(=O)CN(C)C(=O)c2cc(-c3ccc(C)o3)nc3ccccc23)c1 | > 20 µM (inactive)
72 | CN(CC(=O)Nc1ccc(F)cc1)C(=O)c1cc(-c2ccco2)nc2ccccc12 | > 20 µM (inactive)

Row | Structure (SMILES) | IC50
73 | CCc1nnc(NC(=O)c2cc(-c3ccc(C)o3)nc3ccccc23)s1 | > 20 µM (inactive)
74 | Cc1ccc(-c2cc(C(=O)N3CC(C)OC(C)C3)c3ccccc3n2)o1 (stereo not given) | > 20 µM (inactive)
75 | CCCCn1c(N)c(N(CC(C)C)C(=O)c2cc(-c3ccco3)nc3ccccc23)c(=O)[nH]c1=O | > 20 µM (inactive)
76 | COc1ccc(Cc2nnc(NC(=O)C(F)c3ccccc3)s2)cc1OC (stereo not given) | > 20 µM (inactive)
77 | O=C(Nc1nc2ccccc2s1)c1cc(-c2ccco2)nc2ccccc12 | > 20 µM (inactive)
78 | COc1ccc(CC(=O)Nc2nnc(Cc3ccc(OC)c(OC)c3)s2)cc1 | > 20 µM (inactive)
79 | CCOc1cc(N2CCOCC2)c(OCC)cc1NC(=O)c1cc(-c2ccco2)nc2ccccc12 | > 20 µM (inactive)
80 | COc1ccc(CCNC(=O)c2cc(-c3ccco3)nc3ccccc23)cc1 | > 20 µM (inactive)
81 | CCCN(C(=O)c1cc(-c2ccco2)nc2ccccc12)c1c(N)n(Cc2ccccc2)c(=O)[nH]c1=O | inactive
82 | CCCCN(C(=O)c1cc(-c2ccco2)nc2ccccc12)c1c(N)n(CCC)c(=O)[nH]c1=O | > 20 µM (inactive)
83 | COc1ccc(NC(=O)c2cc(-c3ccc(C)o3)nc3ccccc23)c(OC)c1 | > 20 µM (inactive)
84 | Cc1ccc(-c2cc(C(=O)Nc3ccccc3C)c3ccccc3n2)o1 | > 20 µM (inactive)
85 | Cc1ccc2nc(NC(=O)c3cc(-c4ccco4)nc4ccccc34)sc2c1 | > 20 µM (inactive)
86 | COc1ccc(Cc2nnc(NC(=O)C(=O)c3ccco3)s2)cc1OC | > 20 µM (inactive)
87 | Cc1ccc(-c2cc(C(=O)NCCN3CCOCC3)c3ccccc3n2)o1 | > 20 µM (inactive)
88 | Cc1ccc(-c2cc(C(=O)Nc3ccccn3)c3ccccc3n2)o1 | inactive
89 | O=C(Nc1cccc(S(=O)(=O)NC2=NCCCCC2)c1)c1cc(-c2ccco2)nc2ccccc12 | > 20 µM (inactive)
90 | O=C(NC(=S)Nc1cccc(S(=O)(=O)NC2=NCCC2)c1)c1cc(-c2ccco2)nc2ccccc12 | > 20 µM (inactive)
91 | CCOC(=O)c1cc(-c2ccco2)nc2c1c(C)nn2-c1ccccc1 | > 20 µM (inactive)
92 | CC(C)CCNC(=O)c1cc(-c2ccco2)nc2ccccc12 | > 20 µM (inactive)
93 | Cc1ccc(S(=O)(=O)N(C)C)cc1NC(=O)c1cc(-c2ccco2)nc2ccccc12 | > 20 µM (inactive)
94 | Cc1nnc(NC(=O)c2cc(-c3ccco3)nc3ccccc23)s1 | inactive
95 | O=C(c1cc(-c2ccco2)nc2ccccc12)N(Cc1nnc(-c2ccc(Cl)cc2)o1)C1CC1 | > 20 µM (inactive)
